Test results reported in paper PMC6081956 (ChemMedChem, 2018).
“Also recorded” adds a separate entry of the source. Like-named read-outs stand apart in the source and are kept apart here.

What was measured:
CYP3A4 mRNA = format: cell-based; settings: 10 µM 8-OHEFV co-incubated with 2 µM RIF, 48 h, primary human hepatocytes, p=0.004
[1] = test system: PXR target gene Cyp3a11 mRNA; experiment: Cyp3a11 mRNA expression; format: cell-based; settings: PXR-humanized mouse hepatocytes, 10 µM, 72 h, normalized to GAPDH
[2] = 129 patients receiving 600 mg of EFV per day, cited from earlier work
PXR-LBD-SRC1p [3] = molecular target: T1, PXR-LBD-SRC1p (Homo sapiens, UniProt O75469); experiment: Isothermal titration calorimetry; format: binding; settings: for N value (stoichiometry, single-site binding model) / -TΔS° / ΔH° / ΔG°: direct ITC; for -TΔS° / ΔH°: 25°C; for ΔG°: from KD by ΔG° = -RTlnKD
T1 sequence (O75469 with tags, fused parts or gaps): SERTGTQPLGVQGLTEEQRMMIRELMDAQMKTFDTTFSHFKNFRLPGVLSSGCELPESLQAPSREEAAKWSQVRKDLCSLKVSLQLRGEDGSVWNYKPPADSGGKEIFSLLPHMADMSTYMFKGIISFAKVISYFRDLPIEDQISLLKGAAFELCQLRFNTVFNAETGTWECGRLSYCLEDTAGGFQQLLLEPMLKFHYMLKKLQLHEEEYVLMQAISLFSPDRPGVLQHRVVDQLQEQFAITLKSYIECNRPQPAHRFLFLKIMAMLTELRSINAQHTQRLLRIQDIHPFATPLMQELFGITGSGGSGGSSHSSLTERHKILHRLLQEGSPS

[4] = test system: PXR target gene Cyp3a11 mRNA; experiment: Cyp3a11 mRNA expression; format: cell-based; settings: PXR-null mouse hepatocytes, 10 µM, 72 h
PXR-LBD-SRC1p [5] = molecular target: T1, PXR-LBD-SRC1p; experiment: Competitive isothermal titration calorimetry; format: binding; settings: for ΔG°: from KD of competitive ITC
PXR-LBD = molecular target: T2, PXR-LBD (Homo sapiens, UniProt O75469); experiment: biochemical
T2 sequence (O75469 111-434): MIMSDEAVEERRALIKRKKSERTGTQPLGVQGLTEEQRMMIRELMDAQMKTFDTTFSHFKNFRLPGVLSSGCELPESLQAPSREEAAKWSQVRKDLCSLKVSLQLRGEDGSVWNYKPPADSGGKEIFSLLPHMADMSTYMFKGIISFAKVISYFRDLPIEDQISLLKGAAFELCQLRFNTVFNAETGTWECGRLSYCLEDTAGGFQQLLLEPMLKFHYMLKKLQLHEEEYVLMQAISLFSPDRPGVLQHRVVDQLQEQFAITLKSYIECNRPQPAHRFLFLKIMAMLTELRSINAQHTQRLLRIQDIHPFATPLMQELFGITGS

SMILES: O=C1Nc2c(O)cc(Cl)cc2[C@@](C#CC2CC2)(C(F)(F)F)O1 [8-OHEFV, (S)-6-chloro-4-(cyclopropylethynyl)-8-hydroxy-4-(trifluoromethyl)-1,4-dihydro-2H-benzo[d][1,3]oxazin-2-one]
- decrease in CYP3A4 mRNA induction as compared to 2 µM RIF alone (CYP3A4 mRNA): ~20%
- Cyp3a11 mRNA levels, fold change from DMSO control [1]: did not result in modulation of Cyp3a11 mRNA levels; also recorded: did not result in a change in Cyp3a11 mRNA levels
- plasma concentration ([2]; at 4 weeks ref 7): 6.51 ± 0.87 µM
- plasma concentration ([2]; at 16 weeks ref 7): 6.84 ± 1.06 µM
- Kd (PXR-LBD-SRC1p [3]): 7.9 ± 7.7 µM
- N value (stoichiometry, single-site binding model) (PXR-LBD-SRC1p [3]): approximately 1.0
- -TΔS° (PXR-LBD-SRC1p [3]): −3.8 ± 1.5 kcal/mol•K
- ΔH° (PXR-LBD-SRC1p [3]): -3.1 ± 1.2 kcal/mol
- ΔG° (PXR-LBD-SRC1p [3]): -6.9 ± 0.3 kcal/mol

SMILES: O=C1Nc2ccc(Cl)cc2[C@@](C#CC2CC2)(C(F)(F)F)O1 [EFV, (S)-6-chloro-4-(cyclopropylethynyl)-4-(trifluoromethyl)-1,4-dihydro-2H-benzo[d][1,3]oxazin-2-one, reference compound]
- Cyp3a11 mRNA abundance [4]: no impact on Cyp3a11 mRNA abundance
- plasma concentration ([2]; at 4 weeks ref 7): 10.61 ± 1.11 µM
- plasma concentration ([2]; at 16 weeks ref 7): 10.33 ± 0.98 µM
- N value (stoichiometry, single-site binding model) (PXR-LBD-SRC1p [3]): approximately 1.0
- -TΔS° (PXR-LBD-SRC1p [3]): −4.9 ±0.4 kcal/mol•K
- ΔH° (PXR-LBD-SRC1p [3]): -2.1 ± 0.3 kcal/mol
- ΔG° (PXR-LBD-SRC1p [3]): -6.9 ± 0.2 kcal/mol

SMILES: CCCC#CC1(C(F)(F)F)OC(=O)Nc2ccc(Cl)cc21 (stereo not shown) [analog 4, 6-chloro-4-(pent-1-yn-1-yl)-4-(trifluoromethyl)-1,4-dihydro-2H-benzo[d][1,3]oxazin-2-one]
- Kd (PXR-LBD-SRC1p [3]): 78.7 ± 15.3 µM
- -TΔS° (PXR-LBD-SRC1p [3]): −4.5 ±0.2 kcal/mol•K
- ΔH° (PXR-LBD-SRC1p [3]): -1.1 ± 0.1 kcal/mol
- ΔG° (PXR-LBD-SRC1p [3]): -5.6 ± 0.1 kcal/mol

SMILES: COc1ccc(CNc2ccc(Cl)cc2[C@](O)(C#CC2CC2)C(F)(F)F)cc1 [analog 5, (R)-2-(5-chloro-2-((4-methoxybenzyl)amino)phenyl)-4-cyclopropyl-1,1,1-trifluorobut-3-yn-2-ol]
- Kd (PXR-LBD-SRC1p [5]): 14.5 ± 4.3 µM
- ΔG° (PXR-LBD-SRC1p [5]): -6.6 ± 0.1 kcal/mol

SMILES: COc1ccc(CNc2ccc(Cl)cc2[C@@](O)(C#CC2CC2)C(F)(F)F)cc1 [analog 6, (S)-2-(5-chloro-2-((4-methoxybenzyl)amino)phenyl)-4-cyclopropyl-1,1,1-trifluorobut-3-yn-2-ol]
- Kd (PXR-LBD-SRC1p [5]): 9.5 ± 2.7 µM
- ΔG° (PXR-LBD-SRC1p [5]): -6.8 ± 0.2 kcal/mol

SMILES: COc1ccc(C(=O)Nc2ccc(Cl)cc2C(O)(C#CC2CC2)C(F)(F)F)cc1 (stereo not shown) [analog 7, N-(4-chloro-2-(4-cyclopropyl-1,1,1-trifluoro-2-hydroxybut-3-yn-2-yl)phenyl)-4-methoxybenzamide]
- Kd (PXR-LBD-SRC1p [5]): 4.2 ± 1.1 µM
- ΔG° (PXR-LBD-SRC1p [5]): -7.3 ± 0.2 kcal/mol
- Cyp3a11 mRNA levels, fold change from DMSO control [1]: 37 fold

SMILES: FC(F)(F)[C@@]1(C#CC2CC2)OCNc2ccc(Cl)cc21 [analog 8, (S)-6-chloro-4-(cyclopropylethynyl)-4-(trifluoromethyl)-1,4-dihydro-2H-benzo[d][1,3]oxazine]
- Kd (PXR-LBD-SRC1p [3]): 14.9 ± 2.6 µM
- -TΔS° (PXR-LBD-SRC1p [3]): −4.8 ±0.3 kcal/mol•K
- ΔH° (PXR-LBD-SRC1p [3]): -1.8 ± 0.1 kcal/mol
- ΔG° (PXR-LBD-SRC1p [3]): -6.6 ± 0.1 kcal/mol

SMILES: COc1ccc(C2Nc3ccc(Cl)cc3[C@@](C#CC3CC3)(C(F)(F)F)O2)cc1 (stereo partly drawn) [analog 9, (S)-6-chloro-4-(cyclopropylethynyl)-2-(4-methoxyphenyl)-4-(trifluoromethyl)-1,4-dihydro-2H-benzo[d][1,3]oxazine]
- IC50 (PXR-LBD): 39.3 ± 24.1 µM

SMILES: Nc1ccc(Cl)cc1C(=O)C(F)(F)F [analog 10, 1-(2-amino-5-chlorophenyl)-2,2,2-trifluoroethan-1-one]
- Kd (PXR-LBD-SRC1p [5]): > 400 µM
- Cyp3a11 mRNA levels, fold change from DMSO control [1]: no change in the Cyp3a11 mRNA levels

SMILES: O=C1Oc2ccc(Cl)cc2C(C#CC2CC2)(C(F)(F)F)O1 (stereo not shown) [analog 15, 6-chloro-4-(cyclopropylethynyl)-4-(trifluoromethyl)-4H-benzo[d][1,3]dioxin-2-one]
- Kd (PXR-LBD-SRC1p [3]): 10.9 ± 1.8 µM
- -TΔS° (PXR-LBD-SRC1p [3]): −5.1 ±0.2 kcal/mol•K
- ΔH° (PXR-LBD-SRC1p [3]): -1.6 ± 0.2 kcal/mol
- ΔG° (PXR-LBD-SRC1p [3]): -6.8 ± 0.1 kcal/mol

SMILES: O=C1Cc2ccc(Cl)cc2C(C#CC2CC2)(C(F)(F)F)O1 (stereo not shown) [analog 16, 7-chloro-1-(cyclopropylethynyl)-1-(trifluoromethyl)isochroman-3-one]
- Kd (PXR-LBD-SRC1p [5]): 10.5 ± 1.5 µM
- ΔG° (PXR-LBD-SRC1p [5]): -6.8 ± 0.2 kcal/mol
